In US9974931B2, “Pharmaceutical-coated medical products, the production thereof and the use thereof” (Invatec Technology Center Gmbh, priority 2007, dated 2018):

Tests used:
[1] = test system: overstretched coronary arteries in pigs; experiment: Efficacy and tolerance of coated balloon catheters with stent implantation, quantitative angiography after 4 weeks; type: in vivo; conditions: pig coronary artery, n = 8; for Late lumen loss: within 4 weeks
Text: The efficacy and tolerance of coated balloon catheters according to example 5 in overstretched coronary arteries in pigs
Method: Scheller B, Speck U, Abramjuk C, Bernhardt U, Böhm M, Nickenig G: Paclitaxel balloon coating—a novel method for prevention and therapy of restenosis. Circulation 2004; 110: 810-4
Stents were implanted into pigs with the help of methotrexate coated or uncoated (control) balloon catheters. After 4 weeks the extent of the constriction of the lumen in the area of the stent was measured using quantitative angiography.
The late lumen loss means the amount by which the original coronary artery lumen diameter decreases due to excessive cell growth within 4 weeks. With blood flowing through them the original coronary artery lumen diameters were 2.64 mm and 2.41 mm respectively. In the control group (no methotrexate) the late lumen loss was 1.1 mm and in the group treated with methotrexate the late lumen loss was 0.67 mm.

[2] = Coating of balloon catheters with methotrexate: content of active substance; type: physicochemical; conditions: balloons 3.5 to 19 mm; 2×16 μl coating plus additional coat with Ultravist-370 + HES + methotrexate
Protocol: 30 mg methotrexic acid+100 μl sodium bicarbonate (7.5%)+900 μl methanol (coating with 2×16 μl, corresponding to ˜4 μg/mm^2 balloon surface)
Additional coat: Ultravist®-370+hydroxyethyl starch (HES) 10% (1:1 by volume)+30 mg methotrexate/ml applied by immersing for a short time
Stents: stainless steel, balloon-expandable 3.5 to 18 mm
Content of active substance: 5.3 μg/mm^2 balloon surface

[3] = Coating of hydrophilic and non-hydrophilic balloon catheters with paclitaxel by immersion: paclitaxel content on balloon; type: physicochemical; conditions: 4 immersions, 30 mg paclitaxel/ml
Protocol: Coating solution: 30 mg paclitaxel/ml in acetone 89%, ethanol 9%, Ultravist®-370 (Schering AG, Berlin) 2%, by immersing it 4 times and allowing it to dry between each immersion: […]

[4] = Loss of the active substance during expansion in the dry state (adhesion test); type: physicochemical
Text: The active substance can, for example, be released in the form of particles and can then become effective by dissolution in the course of a longer period of time; • Low molecular weight: Substances with a molecular weight less than 5000 Da, and preferably <2000 Da, and particularly preferred <1000 Da; • Hydrophilic/hydrophilised balloon membrane: hydrophilic membranes consisting of materials which can be wetted with water or with hydrophilic solvents; hydrophilised membranes are membranes made out nylon, for example, whose surfaces were changed by subsequent treatment into a state that can be wetted with water or other hydrophilic solvents. • Hydrophilic or hydrophilised membranes are not to be confused with membranes which are provided with an additional hydrophilic layer; • Hydrophilically-coated balloon membrane: A membrane, which contains an additionally applied layer, which can itself be wetted with water; • Open on the surface: Pharmaceuticals or additives which are not incorporated into the balloon membrane or which are not incorporated into any layers that are firmly attached to the balloon membrane. For example, they are not incorporated in any polymeric water-insoluble coatings particularly any hydrogels that may not become detached. […] The balloons are expanded when dry and shaken for 5 seconds in a glass vessel. More than 75% of the dose remains on the balloon; • Highly volatile: Solvents with a boiling point below 300° C., and preferably below 160° C., with below 100° C. being particularly preferred.
Each balloon was coated in the folded state with 3 to 4 μg/mm^2 paclitaxel and was tested for loss of the active substance during expansion in the dry state as defined under ‘Definitions’.

Row | Structure (SMILES) | Minimum vessel diameter 28d ([1]; 28 d) | Late lumen loss [1] | Late lumen loss ([1]; listed as methotrexate) | Content of active substance [2] | μg paclitaxel/mm^2 balloon surface ([3]; hydrophilic catheter, 3.5 to 15 mm, 5 balloon catheters) | μg paclitaxel/mm^2 balloon surface ([3]; hydrophilic catheter, 3.5 to 20 mm, 8 balloon catheters) | μg paclitaxel/mm^2 balloon surface ([3]; standard catheter, 3.5 to 15 mm, 5 balloon catheters) | μg paclitaxel/mm^2 balloon surface ([3]; standard catheter, 3.5 to 20 mm, 8 balloon catheters) | loss of the active substance during expansion in the dry state ([4]; series 1, coating solvent Acetic acid) | loss of the active substance during expansion in the dry state ([4]; series 1, coating solvent Acetone, 3 to 4 μg/mm^2, folded) | loss of the active substance during expansion in the dry state ([4]; series 1, coating solvent Dimethylformamide) | loss of the active substance during expansion in the dry state ([4]; series 1, coating solvent Dimethylsulfoxide) | loss of the active substance during expansion in the dry state ([4]; series 1, coating solvent Dioxane) | loss of the active substance during expansion in the dry state ([4]; series 1, coating solvent Isopropanol) | loss of the active substance during expansion in the dry state ([4]; series 1, coating solvent Tetrahydrofuran) | loss of the active substance during expansion in the dry state ([4]; series 2, Tetrahydrofuran with 10% water by volume) | loss of the active substance during expansion in the dry state ([4]; series 2, Tetrahydrofuran with 20% water by volume) | loss of the active substance during expansion in the dry state ([4]; series 2, Tetrahydrofuran with 37% water by volume) | loss of the active substance during expansion in the dry state ([4]; series 2, coating solvent Tetrahydrofuran)
1 | CN(Cc1cnc2nc(N)nc(N)c2n1)c1ccc(C(=O)N[C@@H](CCC(=O)O)C(=O)O)cc1 [Methotrexate, methotrexate] | 1.74 ± 0.41 mm | 0.67 ± 0.39 mm | 0.67 mm | 5.3 μg/mm^2 balloon surface | – | – | – | – | – | – | – | – | – | – | – | – | – | – | –
2 | CC(=O)O[C@H]1C(=O)[C@@]2(C)[C@H]([C@H](OC(=O)c3ccccc3)[C@]3(O)C[C@H](OC(=O)[C@H](O)[C@@H](NC(=O)c4ccccc4)c4ccccc4)C(C)=C1C3(C)C)[C@]1(OC(C)=O)CO[C@@H]1C[C@@H]2O [paclitaxel] | – | – | – | – | 2.8 μg/mm^2 | 5.6 μg/mm^2 | 3.4 μg/mm^2 | 5.0 μg/mm^2 | 4% | 21% | 24% | 66% | 12% | 19% | 4% | 3% | 16% | 37% | 3%
